For 13 compounds, half-life and IC50 results are on record in ChEMBL document CHEMBL1641425, “Discovery of 1-(3,4-dichlorophenyl)-N,N-dimethyl-1,2,3,4-tetrahydroquinolin-4-amine, a dual serotonin and dopamine reuptake inhibitor” (Bioorg Med Chem Lett, 2011).

Data set [1] is described as follows: Half life in mouse microsomes. It counts as ADME, Microsome.
In data set [2] the target is Sodium-dependent dopamine transporter (Homo sapiens, UniProt Q01959). Briefly: Inhibition of human recombinant dopamine transporter.
Data set [3] in a line: Inhibition of CYP1A. It counts as ADME.
A short description of data set [4]: Half life in human microsomes. It counts as ADME, Microsome.
The target in data set [5] is Cytochrome P450 2D6 (Homo sapiens, UniProt P10635). Briefly: Inhibition of CYP2D6. It counts as ADME.
Data set [6] addresses Cytochrome P450 3A4 (Homo sapiens, UniProt P08684). Briefly: Inhibition of CYP3A4. It counts as ADME.
Data set [7] deals with Cytochrome P450 2C19 (Homo sapiens, UniProt P33261). Briefly: Inhibition of CYP2C19. It counts as ADME.
Data set [8] has as its target Sodium-dependent serotonin transporter (Homo sapiens, UniProt P31645). Briefly: Inhibition of human recombinant 5HT transporter.
Data set [9] has as its target Cytochrome P450 2C9 (Homo sapiens, UniProt P11712). Briefly: Inhibition of CYP2C9. It counts as ADME.
Data set [10] addresses Sodium-dependent noradrenaline transporter (Homo sapiens, UniProt P23975). Briefly: Inhibition of human recombinant norepinephrine transporter.
Data set [11] has as its target Voltage-gated inwardly rectifying potassium channel KCNH2 (Homo sapiens, UniProt Q12809).

Chain of Cytochrome P450 2C9 (P11712 whole entry): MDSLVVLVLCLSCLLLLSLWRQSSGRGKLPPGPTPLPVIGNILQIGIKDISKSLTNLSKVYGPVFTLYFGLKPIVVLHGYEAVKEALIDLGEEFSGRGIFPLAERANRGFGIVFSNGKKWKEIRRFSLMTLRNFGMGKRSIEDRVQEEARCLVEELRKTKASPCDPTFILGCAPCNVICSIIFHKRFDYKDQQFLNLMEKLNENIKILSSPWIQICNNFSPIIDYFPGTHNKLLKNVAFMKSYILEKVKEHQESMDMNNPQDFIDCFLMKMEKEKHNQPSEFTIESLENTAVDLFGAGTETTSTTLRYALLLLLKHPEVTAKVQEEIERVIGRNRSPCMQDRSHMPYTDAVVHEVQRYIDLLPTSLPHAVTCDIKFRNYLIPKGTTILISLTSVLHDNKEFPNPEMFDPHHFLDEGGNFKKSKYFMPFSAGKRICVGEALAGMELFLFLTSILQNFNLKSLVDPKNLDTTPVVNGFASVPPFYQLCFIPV
Chain of Sodium-dependent serotonin transporter (P31645 whole entry): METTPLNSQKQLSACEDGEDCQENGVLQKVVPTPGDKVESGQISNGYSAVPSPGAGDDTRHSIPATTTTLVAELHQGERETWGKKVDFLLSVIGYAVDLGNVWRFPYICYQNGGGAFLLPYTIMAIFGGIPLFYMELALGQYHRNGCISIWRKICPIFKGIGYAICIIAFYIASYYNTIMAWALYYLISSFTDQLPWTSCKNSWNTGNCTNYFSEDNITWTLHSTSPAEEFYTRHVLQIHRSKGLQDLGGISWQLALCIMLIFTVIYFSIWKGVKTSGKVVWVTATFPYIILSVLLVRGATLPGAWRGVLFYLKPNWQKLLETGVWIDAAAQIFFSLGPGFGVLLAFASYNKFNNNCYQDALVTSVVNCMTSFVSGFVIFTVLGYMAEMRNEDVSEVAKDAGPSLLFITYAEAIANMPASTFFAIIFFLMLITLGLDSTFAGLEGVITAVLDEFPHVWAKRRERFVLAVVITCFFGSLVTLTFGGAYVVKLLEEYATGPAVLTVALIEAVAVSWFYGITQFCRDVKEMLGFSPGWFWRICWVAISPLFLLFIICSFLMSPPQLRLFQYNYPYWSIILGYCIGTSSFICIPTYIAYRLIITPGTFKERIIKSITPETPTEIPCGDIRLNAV
Chain of Voltage-gated inwardly rectifying potassium channel KCNH2 (Q12809 whole entry): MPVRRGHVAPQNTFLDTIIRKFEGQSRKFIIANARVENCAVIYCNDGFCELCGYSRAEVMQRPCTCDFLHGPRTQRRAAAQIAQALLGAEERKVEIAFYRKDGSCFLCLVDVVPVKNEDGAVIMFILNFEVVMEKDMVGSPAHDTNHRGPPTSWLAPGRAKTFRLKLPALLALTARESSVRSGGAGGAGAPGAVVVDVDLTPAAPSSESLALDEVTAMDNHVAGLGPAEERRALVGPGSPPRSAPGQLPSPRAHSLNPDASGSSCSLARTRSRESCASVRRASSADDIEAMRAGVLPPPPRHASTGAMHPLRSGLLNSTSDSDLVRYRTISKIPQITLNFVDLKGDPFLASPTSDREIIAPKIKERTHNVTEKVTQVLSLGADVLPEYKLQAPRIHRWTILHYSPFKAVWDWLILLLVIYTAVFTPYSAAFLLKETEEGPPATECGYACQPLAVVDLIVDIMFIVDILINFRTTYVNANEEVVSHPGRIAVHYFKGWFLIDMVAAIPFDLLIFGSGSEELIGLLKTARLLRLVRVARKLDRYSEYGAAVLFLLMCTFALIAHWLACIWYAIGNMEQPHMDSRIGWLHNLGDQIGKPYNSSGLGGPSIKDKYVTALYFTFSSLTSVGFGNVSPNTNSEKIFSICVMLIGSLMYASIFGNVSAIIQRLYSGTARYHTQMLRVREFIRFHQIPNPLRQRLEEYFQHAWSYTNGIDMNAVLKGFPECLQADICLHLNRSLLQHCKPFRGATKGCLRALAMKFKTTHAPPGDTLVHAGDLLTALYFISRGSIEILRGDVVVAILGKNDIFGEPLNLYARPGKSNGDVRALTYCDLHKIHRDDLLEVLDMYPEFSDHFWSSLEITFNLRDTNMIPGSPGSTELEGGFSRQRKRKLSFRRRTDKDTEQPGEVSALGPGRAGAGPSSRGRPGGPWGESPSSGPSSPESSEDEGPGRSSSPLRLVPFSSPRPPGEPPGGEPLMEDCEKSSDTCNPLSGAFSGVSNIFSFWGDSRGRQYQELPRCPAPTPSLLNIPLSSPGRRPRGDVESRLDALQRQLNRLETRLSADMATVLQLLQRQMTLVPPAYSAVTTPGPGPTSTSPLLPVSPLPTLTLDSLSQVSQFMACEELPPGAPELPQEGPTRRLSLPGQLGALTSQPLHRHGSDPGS
Chain of Cytochrome P450 2D6 (P10635 whole entry): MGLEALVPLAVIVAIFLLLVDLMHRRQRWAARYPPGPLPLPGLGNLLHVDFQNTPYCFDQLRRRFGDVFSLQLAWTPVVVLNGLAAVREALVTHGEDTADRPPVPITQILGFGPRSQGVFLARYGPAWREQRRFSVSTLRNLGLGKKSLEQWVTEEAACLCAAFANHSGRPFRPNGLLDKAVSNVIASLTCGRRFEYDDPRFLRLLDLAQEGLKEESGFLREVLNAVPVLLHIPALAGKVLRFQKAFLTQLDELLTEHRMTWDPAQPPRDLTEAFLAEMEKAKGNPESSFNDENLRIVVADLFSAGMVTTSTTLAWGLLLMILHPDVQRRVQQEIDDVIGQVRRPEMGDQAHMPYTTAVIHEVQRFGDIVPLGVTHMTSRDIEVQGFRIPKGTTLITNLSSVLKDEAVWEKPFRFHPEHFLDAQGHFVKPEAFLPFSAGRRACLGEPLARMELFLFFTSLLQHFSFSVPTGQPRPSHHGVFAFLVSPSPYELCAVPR
Chain of Cytochrome P450 2C19 (P33261 whole entry): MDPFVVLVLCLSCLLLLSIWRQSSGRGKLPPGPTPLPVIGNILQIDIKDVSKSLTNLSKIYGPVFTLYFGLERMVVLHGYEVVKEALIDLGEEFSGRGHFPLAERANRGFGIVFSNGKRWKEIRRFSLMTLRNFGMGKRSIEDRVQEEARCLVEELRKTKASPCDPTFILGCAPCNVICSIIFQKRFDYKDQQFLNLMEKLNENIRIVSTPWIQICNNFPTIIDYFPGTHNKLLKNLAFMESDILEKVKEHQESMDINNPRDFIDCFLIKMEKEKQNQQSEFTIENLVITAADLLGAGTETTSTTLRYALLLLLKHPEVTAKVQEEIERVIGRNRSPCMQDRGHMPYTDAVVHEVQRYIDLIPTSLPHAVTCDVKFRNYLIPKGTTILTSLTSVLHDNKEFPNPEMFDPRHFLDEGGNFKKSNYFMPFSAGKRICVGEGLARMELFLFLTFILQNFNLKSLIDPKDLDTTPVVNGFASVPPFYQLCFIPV
Chain of Cytochrome P450 3A4 (P08684 whole entry): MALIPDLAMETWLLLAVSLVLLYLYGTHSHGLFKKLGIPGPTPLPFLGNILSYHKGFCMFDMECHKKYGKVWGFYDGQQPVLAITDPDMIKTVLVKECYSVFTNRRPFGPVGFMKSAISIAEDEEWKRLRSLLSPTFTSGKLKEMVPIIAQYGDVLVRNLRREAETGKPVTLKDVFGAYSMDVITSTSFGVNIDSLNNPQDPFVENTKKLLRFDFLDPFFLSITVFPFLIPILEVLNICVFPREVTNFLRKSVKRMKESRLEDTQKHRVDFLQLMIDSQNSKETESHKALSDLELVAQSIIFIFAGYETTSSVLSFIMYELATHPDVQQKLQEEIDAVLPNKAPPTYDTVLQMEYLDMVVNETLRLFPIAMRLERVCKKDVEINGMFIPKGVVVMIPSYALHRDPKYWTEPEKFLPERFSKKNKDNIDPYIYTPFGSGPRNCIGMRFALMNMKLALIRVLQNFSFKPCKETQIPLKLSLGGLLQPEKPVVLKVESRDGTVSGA
Chain of Sodium-dependent noradrenaline transporter (P23975 whole entry): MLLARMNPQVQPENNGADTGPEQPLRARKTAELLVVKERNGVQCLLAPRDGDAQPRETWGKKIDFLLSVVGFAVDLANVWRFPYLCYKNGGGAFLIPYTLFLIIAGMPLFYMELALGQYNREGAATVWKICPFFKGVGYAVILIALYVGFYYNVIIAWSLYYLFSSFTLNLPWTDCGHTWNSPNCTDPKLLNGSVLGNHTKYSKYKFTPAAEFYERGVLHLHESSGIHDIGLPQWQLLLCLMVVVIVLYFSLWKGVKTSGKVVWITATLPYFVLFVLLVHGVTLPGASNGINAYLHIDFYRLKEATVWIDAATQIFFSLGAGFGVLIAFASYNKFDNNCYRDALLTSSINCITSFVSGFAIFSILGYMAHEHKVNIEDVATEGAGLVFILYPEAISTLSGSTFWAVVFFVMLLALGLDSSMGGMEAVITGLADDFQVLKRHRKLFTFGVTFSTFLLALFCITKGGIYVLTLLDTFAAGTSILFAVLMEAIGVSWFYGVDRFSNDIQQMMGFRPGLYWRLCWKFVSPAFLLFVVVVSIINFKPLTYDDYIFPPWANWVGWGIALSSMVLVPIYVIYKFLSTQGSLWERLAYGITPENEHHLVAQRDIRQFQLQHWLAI
Chain of Sodium-dependent dopamine transporter (Q01959 whole entry): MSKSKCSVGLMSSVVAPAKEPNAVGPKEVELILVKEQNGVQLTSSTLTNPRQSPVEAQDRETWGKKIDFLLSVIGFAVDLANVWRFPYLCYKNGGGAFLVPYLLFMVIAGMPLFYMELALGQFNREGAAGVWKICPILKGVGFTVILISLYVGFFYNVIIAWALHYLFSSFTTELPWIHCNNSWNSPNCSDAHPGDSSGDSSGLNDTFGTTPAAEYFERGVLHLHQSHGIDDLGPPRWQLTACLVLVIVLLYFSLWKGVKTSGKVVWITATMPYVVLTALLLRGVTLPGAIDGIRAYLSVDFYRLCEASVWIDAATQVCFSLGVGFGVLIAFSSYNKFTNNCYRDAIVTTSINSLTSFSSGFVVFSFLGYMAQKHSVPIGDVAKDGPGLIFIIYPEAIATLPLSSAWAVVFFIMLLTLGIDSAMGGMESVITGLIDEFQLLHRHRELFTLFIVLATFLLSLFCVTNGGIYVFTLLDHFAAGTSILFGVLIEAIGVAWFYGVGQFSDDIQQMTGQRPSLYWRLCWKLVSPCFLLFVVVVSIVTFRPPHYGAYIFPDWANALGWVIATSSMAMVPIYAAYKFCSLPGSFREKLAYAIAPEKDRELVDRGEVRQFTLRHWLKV

What is called half-life is how long it takes for the measured level to halve. The term IC50 denotes the point on the concentration scale where inhibition reaches its midpoint. On to `CNC1CCN(c2ccc(Cl)c(Cl)c2)c2ccccc21` (stereo unspecified), for which the half-life was determined as 0.367 h in data set [1] and 3.32 h in data set [4]. In addition, the IC50 was 0.039 µM in data set [2]; over 25 µM in [3]; 3 µM in [5]; over 25 µM in [6]; 14.1 µM in data set [7]; 0.02 µM in [8]. Further, the IC50 is over 25 µM in [9], 0.934 µM in data set [10] and 7.8 µM in data set [11].
For the compound `CN[C@H]1Cc2ccccc2N(c2ccc(Cl)c(Cl)c2)C1`, the half-life in [1] was 0.333 h; in data set [4] it was 3.95 h. Further, the IC50 was 0.1 µM in data set [2], 0.1 µM in data set [5], 0.128 µM in data set [8] and 1.25 µM in [10].
Consider `CN(C)[C@@H]1CCN(c2ccc(Cl)c(Cl)c2)c2ccccc21`, for which the half-life in data set [1] is 0.005 h; in data set [4], over 5 h. For the same compound, the IC50 in data set [2] was 0.016 µM; in data set [3] it was over 25 µM; in [5], 6.02 µM; in [6], over 25 µM; in data set [7], over 25 µM; in data set [8] it was 0.007 µM. Also, the IC50 in data set [9] turned out to be 0.25 µM; in data set [10], 1.18 µM.
Take `CNC1Cc2ccccc2N(c2ccc(Cl)c(Cl)c2)C1` (stereo unspecified): the IC50 in data set [2] is 0.177 µM; in data set [8] it was 0.985 µM; in [10], 1.01 µM.
Turning to `N[C@H]1Cc2ccccc2N(c2ccc(Cl)c(Cl)c2)C1`, the IC50 in data set [2] was determined as 0.465 µM; in [8], 2.4 µM; in data set [10] it was 1.85 µM.
Consider `NC1Cc2ccccc2N(c2ccc(Cl)c(Cl)c2)C1` (stereo unspecified), for which the IC50 was 0.605 µM in data set [2], 2.55 µM in data set [8] and 2.6 µM in [10].
`CN(C)[C@H]1Cc2ccccc2N(c2ccc(Cl)c(Cl)c2)C1`: the IC50 in data set [2] amounted to 0.309 µM; in [8] it was 5.56 µM; in data set [10], 3.09 µM.
Take `N[C@@H]1CCN(c2ccc(Cl)c(Cl)c2)c2ccccc21`: the values for the half-life in data set [1] and in data set [4] were 3.35 h and over 5 h, respectively. The IC50 in [2] is 0.012 µM; in data set [3], over 25 µM; in [5] it was 4.87 µM; in [6], over 25 µM; in data set [7], over 25 µM; in data set [8] it was 0.116 µM. Besides, the IC50 is over 25 µM in data set [9], 0.138 µM in [10] and 3.5 µM in [11].
As to `CN[C@H]1Cc2ccccc2[C@@H](c2ccc(Cl)c(Cl)c2)C1`, the IC50 in data set [2] is 0.072 µM.
Take `CN(C)C1Cc2ccccc2N(c2ccc(Cl)c(Cl)c2)C1` (stereo unspecified): the IC50 stood at 0.122 µM in data set [2], 0.436 µM in [8] and 1.86 µM in [10].
As for `CN(C)C1CCN(c2ccc(Cl)c(Cl)c2)c2ccccc21` (stereo unspecified), the results for the IC50 in data set [2], in [8] and in [10] were 5.03 µM, 0.003 µM and 7.14 µM, respectively.
Turning to `NC1CCN(c2ccc(Cl)c(Cl)c2)c2ccccc21` (stereo unspecified), the results for the IC50 in data set [2], in [8] and in data set [10] were 0.246 µM, 0.65 µM and 0.926 µM, respectively.
Take `CN[C@@H]1CCN(c2ccc(Cl)c(Cl)c2)c2ccccc21`: the half-life in data set [1] and in [4] was over 5 h in each case. Also, the 50% inhibitory concentration (IC50) in data set [2] was 0.008 µM; in data set [3], over 25 µM; in data set [5] it was 1.5 µM; in data set [6], over 25 µM; in data set [7], 19 µM; in [8], 0.132 µM. Also, the IC50 was over 25 µM in [9], 0.601 µM in [10] and 3.25 µM in data set [11].
